Source: article PMC8194028, “Engineering and characterization of human β-defensin-3 and its analogues and microcin J25 peptides against Mannheimia haemolytica and bovine neutrophils” (Veterinary Research, 2021)
Like-named read-outs stand apart in the source and are kept apart here. Positions of bridges follow the written chain, without caps; N, C: chain ends. Residues, ends and D or L forms follow the SMILES beside them. No end group written: not given here.

Legend:
[1] = tested on: M. haemolytica; assay: Inhibition of visible growth (MIC assay, optical density method); format: cell-based, Mannheimia haemolytica; conditions: 10 000–25 000 bacteria/well; compared with control wells
Description: (§1) Wild-type HBD3, its analogues, and MccJ25 were tested against M. haemolytica-A1 using optical density method and colony count assay. Briefly, an aliquot (5 µL) from bacteria suspension stored at −80 °C was put in 5 mL BHI broth at 37 °C for 18 h. An aliquot (10 µL) from this overnight culture was added to fresh BHI broth and incubated at 37 °C for a further 5 h to obtain mid-log phase bacteria. The culture was then centrifuged for 10 min at 800 g at 4 °C. The supernatant was discarded and the bacterial pellet was resuspended in cold, sterile sodium phosphate buffer (SPB) and washed again at 800g for 10 min at 4 °C. The pellet was resuspended in 5 mL SPB. To calculate the number of CFU/mL in the 5 h culture, six successive tenfold dilutions were made. From the last dilution 100 µL was plated in duplicate on petri dishes containing BHI agar and incubated for 24 h. After 24 h the colonies were counted in the two petri dishes and then averaged. Total number of colonies was the average number of colonies multiplied by the dilution factor.
All assays were carried out in sterile 96-well polypropylene flat-bottomed plates using a broth microdilution method. Two-fold serial dilutions of peptide were made in SPB, and 50 µL of each concentration of peptide was added to the wells of the assay plate. […]

[2] = cited from earlier work
Source text: In this context, antimicrobial peptides (AMPs) have received significant attention as alternatives to antibiotics. […] Recent work by the […] laboratory has shown that treatment with naturally expressed Tracheal Antimicrobial Peptide, a defensin, neither killed M. haemolytica nor prevented the development of lung disease. Coupled with the fact that M. haemolytica, in normal condition, is prevented from e ...

[3] = tested on: bovine neutrophils; assay: Chemotaxis assay, 48-well Boyden chamber; format: cell-based, cattle; conditions: peptide 50.0 μg/mL in lower well; 20 min at 37 °C; three independent experiments; ANOVA with Dunnett, P < 0.05
Description: (§2) Neutrophils were isolated from cattle using established methods and approved by the University of Saskatchewan’s Committee on Animal Care. For each individual animal, blood was pooled into 50 mL tubes and diluted with an equal volume of PBS then 12.5 mL of the diluted blood was layered over 10 mL of Ficoll Paque PLUS (Sigma-Aldrich, St. Louis, USA) while taking care to preserve the interface between the two liquids. Following centrifugation at 400 g for 30 min at 20 °C with the brake turned off, the lymphocyte layer was discarded along with Ficoll and plasma. The pellet was washed in 20 mL PBS with centrifugation at 500 g with low brake for 10 min. The supernatant was discarded and the pellet was suspended in equal volume of sterile water and gently mixed for 20 s followed by addition of equal volume of 1.8% NaCl to restore tonicity. The mixture was centrifuged at 500 g for 10 min and followed by another washing and centrifugation at 4 °C. The resulting neutrophil pellet was resuspended in PBS. Bovine neutrophils, collected in the above manner had more than 92% purity, and their viability was greater than 95% based on Trypan blue exclusion assay. Therefore, we use the term neutrophils in the manuscript.
We used fMLP ([…]) as the chemoattractant. […] The cells within the filter pores were then counted in five random fields under light microscope at 40×. […]

[4] = tested on: 28 species and 55 strains of Gram-positive cocci and Gram-negative fermentative and non-fermentative rods; parameters: method as in PMID 12709350; conditions: final bacterial inoculum 10^4 to 10^5/mL; cited from earlier work
[5] = tested on: M. haemolytica-A1; format: cell-based, Mannheimia haemolytica; conditions: for LD50 / MBC: 2 h; for Sensitivity of M. haemolytica to the peptide (class by MBC): MBC assay, classification of ref 28; for No. of CFU: final inoculum 5 × 10^5 cfu/mL, one of three experiments
Description: as §1
All assays were carried out in sterile 96-well polypropylene flat-bottomed plates using a broth microdilution method. Two-fold serial dilutions of peptide were made in SPB, and 50 µL of each concentration of peptide was added to the wells of the assay plate. […] Positive control wells contained 50 µL of the bacteria with 50 µL of 64 µg/mL ampicillin and negative control wells contained 50 µL of SPB and 50 µL bacterial suspension. Sterility control well contained 100 µL BHI broth to test and ensure that broth was not contaminated.
The plates were sealed with aluminum foil and were incubated at 37 °C for 2 h then 50 µL of the contents of the well were pipetted on BHI agar plates and incubated for 24 h. The bactericidal activity was expressed as the MBC which is the concentration at which 99.9% of the colonies are killed and the Lethal dose 50 (LD50) at which 50% or more bacteria are killed. All experiments were run in triplicates.
Peptides HBD3, its analogues and Mccj25 were assessed for Minimum bactericidal concentration (MBC). […] All the peptides have shown intermediate to potent killing activity towards M. haemolytica (Figures 2, 3). […] However, some published studies have taken final inoculum in the range of 10^4–10^5 cfu/mL [28].

[6] = tested on: bovine neutrophils; assay: Migration inhibition assay (neutrophil migration towards fMLP); format: cell-based, cattle; conditions: neutrophils with 50.0 μg/mL peptide in upper well; fMLP 114 nM in lower well; 20 min at 37 °C; three independent experiments
Description: as §2
Since peptides can be immunomodulatory, migration inhibition was carried out to determine if the peptides inhibit neutrophil migration. […]

[7] = peptide 0.8 μg/mL, well row A (duplicate 1)
[8] = peptide 0.8 μg/mL, well row B (duplicate 2)
[9] = peptide 1.6 μg/mL, well row A (duplicate 1)
[10] = peptide 1.6 μg/mL, well row B (duplicate 2)
[11] = peptide 3.1 μg/mL, well row A (duplicate 1)
[12] = peptide 3.1 μg/mL, well row B (duplicate 2)
[13] = peptide 12.5 μg/mL, well row A (duplicate 1)
[14] = peptide 12.5 μg/mL, well row B (duplicate 2)
[15] = peptide 25.0 μg/mL, well row A (duplicate 1)
[16] = peptide 25.0 μg/mL, well row B (duplicate 2)
[17] = peptide 50.0 μg/mL, well row A (duplicate 1)
[18] = peptide 50.0 μg/mL, well row B (duplicate 2)
[19] = peptide 100.0 μg/mL, well row A (duplicate 1), 2 h 37 °C, 50 μL plated, 24 h
[20] = peptide 100.0 μg/mL, well row B (duplicate 2)

CC1(C)S[C@@H]2[C@H](NC(=O)[C@H](N)c3ccccc3)C(=O)N2[C@H]1C(=O)O [Ampicillin]
Inhibition of visible growth of M. haemolytica [1]: no growth

CC[C@H](C)[C@H](NC(=O)CNC(=O)[C@@H](NC(=O)[C@H](Cc1ccccc1)NC(=O)[C@H](Cc1ccc(O)cc1)NC(=O)[C@@H]1CCC(=O)NCC(=O)NCC(=O)N[C@@H](C)C(=O)NCC(=O)N[C@@H](Cc2cnc[nH]2)C(=O)N[C@@H](C(C)C)C(=O)N2CCC[C@H]2C(=O)N1)C(C)C)C(=O)NCC(=O)N[C@H](C(=O)N1CCC[C@H]1C(=O)N[C@H](C(=O)N[C@@H](CO)C(=O)N[C@@H](Cc1ccccc1)C(=O)N[C@@H](Cc1ccc(O)cc1)C(=O)NCC(=O)O)[C@@H](C)CC)[C@@H](C)O [MccJ25, Microcin J25] (GGAGHVPEYFVGIGTPISFYG-OH; lactam N-8)
Stability in the presence of many proteolytic enzymes [2]: stable

GIINTLQKYYCRVRGGRCAVLSCLPKEEQIGKCSTRGRKCCRRKK (disulfide 11-40, 18-33, 23-41 (inferred)) [HBD3, Human β-Defensin 3, reference compound]
Chemotaxis of bovine neutrophils towards peptide (migrated neutrophils vs PBS) [3]: chemotactic
MBC, three strains out of 55 tested (intermediate susceptibility) [4]: 50.0 mg/L
LD50 [5]: 6.3 µg/mL
MBC [5]: 50.0 mg/L
Sensitivity of M. haemolytica to the peptide (class by MBC) [5]: intermediately sensitive (as intermediately sensitive if MBC levels were 10–100 μg/mL)
No. of CFU [5, 7]: >400 CFU
No. of CFU [5, 8]: >400 CFU
No. of CFU [5, 9]: >400 CFU
No. of CFU [5, 10]: >400 CFU
No. of CFU [5, 11]: >400 CFU
No. of CFU [5, 12]: >400 CFU
No. of CFU ([5]; peptide 6.3 μg/mL, well row A (duplicate 1)): 210 CFU
No. of CFU ([5]; peptide 6.3 μg/mL, well row B (duplicate 2)): 390 CFU
No. of CFU [5, 13]: 42 CFU
No. of CFU [5, 14]: 101 CFU
No. of CFU [5, 15]: 31 CFU
No. of CFU [5, 16]: 9 CFU
No. of CFU [5, 17]: 0 CFU
No. of CFU [5, 18]: 0 CFU
No. of CFU [5, 19]: 0 CFU
No. of CFU [5, 20]: 0 CFU
Effect of peptide on neutrophil migration towards fMLP [6]: none of the peptides inhibited migration

KEEQIGKVSTRGRKVVRRKK-OH [HBD3 20AA analogue]
Chemotaxis of bovine neutrophils towards peptide (migrated neutrophils vs PBS) [3]: chemotactic
LD50 [5]: 3.1 µg/mL
MBC [5]: 50.0 mg/L
Sensitivity of M. haemolytica to the peptide (class by MBC) [5]: intermediately sensitive (as intermediately sensitive if MBC levels were 10–100 μg/mL)
No. of CFU [5, 7]: >400 CFU
No. of CFU [5, 8]: >400 CFU
No. of CFU [5, 9]: >400 CFU
No. of CFU [5, 10]: >400 CFU
No. of CFU [5, 11]: 376 CFU
No. of CFU [5, 12]: >400 CFU
No. of CFU [5, 13]: 240 CFU
No. of CFU [5, 14]: 170 CFU
No. of CFU [5, 15]: 128 CFU
No. of CFU [5, 16]: 151 CFU
No. of CFU [5, 17]: 15 CFU
No. of CFU [5, 18]: 4 CFU
No. of CFU [5, 19]: 4 CFU
No. of CFU [5, 20]: 1 CFU
Effect of peptide on neutrophil migration towards fMLP [6]: none of the peptides inhibited migration
